What all share (assay type): physicochemical
Data set [1] can be described thus: Hygroscopicity assessment by dynamic vapor sorption (DVS). Conditions: for Weight Gain under 80% RH: DVS, 25° C.; for Hygroscopicity according to the criteria of hygroscopicity: based on weight gain under 80% RH. The method, then:
Dynamic Vapor Sorption (DVS) is measured via an SMS (Surface Measurement Systems Ltd.) intrinsic DVS. Typical Parameters for DVS test are as follows: • Temperature: 25° C. • Gas and flow rate: N2, 200 mL/min • dm/dt: 0.002%/min • RH range: 0% RH to 95% RH
Dynamic vapor sorption (DVS) was applied to test hygroscopicity of Form CS9 with about 10 mg of samples. The DVS plot was substantially as depicted in FIG. 14.
Dynamic vapor sorption (DVS) was applied to test hygroscopicity of Form CS10 with about 10 mg of samples. The DVS plot is substantially as depicted in FIG. 15.
Dynamic vapor sorption (DVS) was applied to test hygroscopicity of Form CS11 with about 10 mg of samples. The DVS plot is substantially as depicted in FIG. 16.

Data set [2] can be described thus: Particle size distribution test (laser particle size analyzer, wet process). Conditions: for MV (average particle size calculated by volume): dispersion medium Isopar G; for D10 / D50 / D90: volume distribution. How it is done:
The particle size distribution test in the present disclosure is acquired by the S3500 laser particle size analyzer of Microtrac. Microtrac S3500 is equipped with the SDC (Sample Delivery Controller). The test is carried out by wet process, and the dispersion medium is Isopar G The parameters are as follow:
Certain amount of samples of Form CS9, Form CS10 and Form CS11 of ozanimod were taken for particle size distribution test.
The abbreviations used in the invention are explained as follows: • Mv: Average particle size calculated by volume. • D10: particle size which accounts for 10% of the particle size distribution (volume distribution). • D50: particle size which accounts for 50% of the particle size distribution (volume distribution), also known as the median diameter. • D90: particle size which accounts for 90% of the particle size distribution (volume distribution).

A short description of data set [3]: Stability assessment in chamber with controlled temperature and relative humidity (XRPD, HPLC). The conditions noted are these: for Stability (verdict in words): after storage for 2 weeks. The method, then:
Sample of Form CS10 was placed in chamber with controlled temperature and relative humidity at 40° C./75% RH for 2 weeks, and then the solids were sampled for XRPD test. The XRPD pattern overlay was substantially as depicted in FIG. 23 (from top to bottom: XRPD pattern of ozanimod Form CS10 before and after being stored under 40° C./75% RH for 2 weeks).
Two samples of Form CS11 of ozanimod were placed in chamber with controlled temperature and relative humidity at 25° C./60% RH and 40° C./75% RH for 2 weeks. XRPD and HPLC were used to test the crystalline form and chemical purity. The XRPD overlay pattern was substantially as depicted in FIG. 24 (from top to bottom: XRPD pattern of ozanimod Form CS11 before and after being stored under 25° C./60% RH and 40° C./75% RH for 2 weeks).

Data set [4] can be described thus: Solubility assessment in H2O, saturated solution measured by HPLC. How it is done: Form CS9 of ozanimod was suspended into H2O to obtain saturated solution. After being equilibrated for 1 h, 4 h and 24 h, concentrations of the saturated solutions were measured by HPLC.

In brackets after ≈: the same amount, converted by molar mass.

Take `CC(C)Oc1ccc(-c2nc(-c3cccc4c3CC[C@@H]4NCCO)no2)cc1C#N` [Form CS11, ozanimod]: in data set [1], the “Weight Gain under 80% RH” value was determined as 0.57% and the “Hygroscopicity according to the criteria of hygroscopicity” value (“Hygroscopicity according to the criteria” for short) is given as “slightly hygroscopic”. In data set [2], the “MV (average particle size calculated by volume)” value is 137.7 μm, the D10 is 27.13 μm, the D50 stood at 110.4 μm and the D90 was 286.6 μm. In addition, in data set [3] (25° C./60% RH for 2 weeks), the “Chemical purity change by HPLC” value was “No form change and obvious purity decrease”; the “Crystalline form change by XRPD” value is “No form change”. In data set [3] (40° C./75% RH for 2 weeks), the “Chemical purity change by HPLC” value is “No form change and obvious purity decrease”; the “Crystalline form change by XRPD” value is given as “No form change”. Besides, the “Stability (verdict in words)” value in data set [3] is given as “good stability”.

For `CC(C)Oc1ccc(-c2nc(-c3cccc4c3CC[C@@H]4NCCO)no2)cc1C#N` [Form CS10, ozanimod], in data set [1], the “Weight Gain under 80% RH” value was determined as 1.02% and the “Hygroscopicity according to the criteria” value is reported as “slightly hygroscopic”. In addition, in data set [2], the “MV (average particle size calculated by volume)” value was 317.2 μm, the D10 worked out at 65.87 μm, the D50 is reported as 254.8 μm and the D90 is 669.0 μm. Besides, in data set [3] (40° C./75% RH for 2 weeks), the “Crystalline form change by XRPD” value is “No form change”. In addition, the “Stability (verdict in words)” value in data set [3] was “good stability”.

One may read the solubility as how much of the substance goes into solution per volume. Higher therefore signals a readily soluble substance. On to `CC(C)Oc1ccc(-c2nc(-c3cccc4c3CC[C@@H]4NCCO)no2)cc1C#N` [Form CS9, ozanimod], for which, in data set [1], the “Weight Gain under 80% RH” value is recorded as 2.88% and the “Hygroscopicity according to the criteria” value is “hygroscopic”. Further, the “Solubility in water (verdict in words)” value in data set [4] was “good solubility in water”. Also, the concentration in solution in data set [4] (water, thermodynamic from solid, equilibrated for 1 h) (solubility at 1 h) came to 470 µg/mL (≈ 1160 µM). The molecule also yielded a solubility at 4 h in data set [4] (water, thermodynamic from solid, equilibrated for 4 h) of 360 µg/mL (≈ 890 µM). Further, in data set [2], the “MV (average particle size calculated by volume)” value is given as 339.9 μm, the D10 is 50.97 μm, the D50 is on record as 284.3 μm and the D90 was 728.7 μm.
